Measured values from patent US20150250786A1, “PYRIMIDINE HYDROXY AMIDE COMPOUNDS AS PROTEIN DEACETYLASE INHIBITORS AND METHODS OF USE THEREOF” (THE TRUSTEES OF THE UNIVERSITY OF PENNSYLVANIA, priority 2012, published 2015).

Tests used:
HDAC6 = target: T1, HDAC6 (Homo sapiens, UniProt Q9UBN7); assay: HDAC enzyme assay, HDAC6
T1 sequence (Q9UBN7 1-1215): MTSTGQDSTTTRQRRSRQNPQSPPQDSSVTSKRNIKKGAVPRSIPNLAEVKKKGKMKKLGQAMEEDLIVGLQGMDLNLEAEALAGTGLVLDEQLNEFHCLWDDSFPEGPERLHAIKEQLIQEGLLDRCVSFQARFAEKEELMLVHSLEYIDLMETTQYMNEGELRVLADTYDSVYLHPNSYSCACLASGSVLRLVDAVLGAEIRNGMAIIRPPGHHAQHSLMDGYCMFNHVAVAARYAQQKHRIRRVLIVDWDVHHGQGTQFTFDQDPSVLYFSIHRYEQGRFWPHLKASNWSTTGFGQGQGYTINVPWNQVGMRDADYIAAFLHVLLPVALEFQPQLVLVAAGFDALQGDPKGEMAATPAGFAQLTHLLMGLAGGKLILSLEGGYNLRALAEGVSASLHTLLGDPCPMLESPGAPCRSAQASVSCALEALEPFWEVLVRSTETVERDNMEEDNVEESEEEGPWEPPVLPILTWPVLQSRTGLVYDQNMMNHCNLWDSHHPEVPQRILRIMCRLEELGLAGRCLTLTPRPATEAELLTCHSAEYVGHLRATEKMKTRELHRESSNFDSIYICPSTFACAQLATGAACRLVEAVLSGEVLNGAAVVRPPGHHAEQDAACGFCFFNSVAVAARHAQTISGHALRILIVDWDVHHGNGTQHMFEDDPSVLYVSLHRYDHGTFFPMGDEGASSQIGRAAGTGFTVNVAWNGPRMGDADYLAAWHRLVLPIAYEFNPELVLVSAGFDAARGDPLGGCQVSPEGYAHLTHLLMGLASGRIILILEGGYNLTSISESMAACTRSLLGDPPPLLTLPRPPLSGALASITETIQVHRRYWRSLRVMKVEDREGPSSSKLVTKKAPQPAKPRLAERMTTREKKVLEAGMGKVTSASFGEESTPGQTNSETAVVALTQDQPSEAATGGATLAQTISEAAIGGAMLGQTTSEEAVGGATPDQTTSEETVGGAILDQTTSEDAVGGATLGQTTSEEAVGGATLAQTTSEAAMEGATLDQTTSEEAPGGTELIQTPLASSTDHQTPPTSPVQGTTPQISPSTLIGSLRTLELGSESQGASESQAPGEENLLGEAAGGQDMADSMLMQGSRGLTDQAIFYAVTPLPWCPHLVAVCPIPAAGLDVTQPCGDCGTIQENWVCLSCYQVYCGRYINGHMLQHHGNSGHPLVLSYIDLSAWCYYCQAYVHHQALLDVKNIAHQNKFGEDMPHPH

[1] = tested on: α-tubulin acetylation in mouse whole brain lysates; assay: α-tubulin acetylation in whole brain lysates after single i.p. administration; format: in vivo; settings: compound 73 5 mg/kg, compound 101 50 mg/kg, tubastatin A 10 mg/kg, 30 min, 1 h, 4 h
mice = assay: Chronic social defeat (CSD) and social interaction test; format: in vivo, mouse; settings: after CSD; fluoxetine 20 mg/kg, compound 73 5 mg/kg, compound 101 50 mg/kg
Description: Additionally, when combined with a dose of Citalopram with lower activity, these compounds seemed to have an additive effect (See FIG. 10). The dose of Citalopram chosen for this experiment was based on literature stating 2 mg/kg should be subactive, but this dose was found still showing an effect. Mice then underwent chronic social defeat stress, in which the mice are exposed to an aggressive resident mouse for 5 minutes daily for 10 days and are then tested on the 11th day in the social interaction test. Mice treated with vehicle for 20 total days, beginning 10 days before the defeat, show reduced time spent in the interaction zone when a target mouse is present when compared with control mice. […] The percent of mice found to be resilient, defined as spending more time in the interaction zone than the lowest control (i.e. ˜52 s), is higher in HDAC6 inhibitor groups. All behavior testing done using NIH Swiss mice, age 6-10 weeks. Tukey post-hoc analysis: * P=0.01 to 0.05, ** P=0.001-0.01, ***P<0.001 compared with vehicle treated mice.
The effects were observed 30 minutes after acute 50 mg/kg i.p. injection, but not for the lower dose (5 mg/kg). Combination of subactive doses of the HDAC6 selective inhibitors (5 mg/kg) and citalopram (0.5 mg/kg) produced robust potentiation of anti-immobility activity (n=8-29 per condition). […] No difference was observed between HDAC6 WT and KO when treated with the vehicle (n=6-15 per condition). FIG. 16c is a timeline showing treatment period, social defeat and social interaction (SI) testing.
A pro-resilient phenotype in the mouse CSD paradigm after serotonin-selective KO of HDAC6 was previously reported (Espallergues et al, 2012). Whether a chronic pharmacological inhibition of HDAC6 can replicate that phenotype is studied. […] On day 21, 24 h after the last injection, the mice were tested in the social interaction test. […] Significant effects were also observed when data was evaluated in terms of proportion of mice reaching criterion for resiliency.

[2] = Body weight gain during chronic treatment; format: in vivo, mouse; settings: 4 weeks of treatment

O=C(NO)c1cnc(NC2(c3cccc(F)c3)CCCCC2)nc1 [Compound 101, 2-((1-(3-fluorophenyl)cyclohexyl)amino)-N-hydroxypyrimidine-5-carboxamide]
IC50 (HDAC6): 7.5 nM | average selectivity over class I HDACs (HDAC6): 700 fold | α-tubulin acetylation in whole brain lysates [1]: significant increases | percentage of resilient mice (mice): 58% | body weight gain [2]: no significant effect
